Reference: ChEMBL document CHEMBL5303573, “Mapping human microbiome drug metabolism by gut bacteria and their genes” (Nature, 2019)

Details: bacteroides intestinalis, 12 h, 2 µM
Description: The drug is tested on Bacteroides intestinalis strain: DSM17393 for biotransformation. The drug concentrations were measured before and after a 12-h incubation by liquid-chromatography-coupled mass spectrometry (LC–MS)

Structure (SMILES)	Bacterial Biotransformation
O=P1(N(CCCl)CCCl)NCCCO1 (stereo unspecified) [CYCLOPHOSPHAMIDE ANHYDROUS]	Compound NOT metabolized
CC(C)C[C@H]1C(=O)N2CCC[C@H]2[C@]2(O)O[C@](NC(=O)[C@@H]3C=C4c5cccc6[nH]c(Br)c(c56)C[C@H]4N(C)C3)(C(C)C)C(=O)N12.CS(=O)(=O)O [BROMOCRIPTINE MESYLATE]	Compound metabolized
CN1CCN(C2=Nc3cc(Cl)ccc3Nc3ccccc32)CC1 [CLOZAPINE]	Compound NOT metabolized

Details: bacteroides fragilis, 12 h, 2 µM
Description: The drug is tested on Bacteroides fragilis strain: 3397 (T10) for biotransformation. The drug concentrations were measured before and after a 12-h incubation by liquid-chromatography-coupled mass spectrometry (LC–MS)

Structure (SMILES)	Bacterial Biotransformation
O=P1(N(CCCl)CCCl)NCCCO1 (stereo unspecified) [CYCLOPHOSPHAMIDE ANHYDROUS]	Compound NOT metabolized
CC(NC(C)(C)C)C(=O)c1cccc(Cl)c1 (stereo unspecified) [BUPROPION]	Compound NOT metabolized
CC(C)C[C@H]1C(=O)N2CCC[C@H]2[C@]2(O)O[C@](NC(=O)[C@@H]3C=C4c5cccc6[nH]c(Br)c(c56)C[C@H]4N(C)C3)(C(C)C)C(=O)N12.CS(=O)(=O)O [BROMOCRIPTINE MESYLATE]	Compound metabolized
CN1CCN(C2=Nc3cc(Cl)ccc3Nc3ccccc32)CC1 [CLOZAPINE]	Compound NOT metabolized

Experiment: The drug is tested on Enterobacter cancerogenus strain: ATCC35316 for biotransformation. The drug concentrations were measured before and after a 12-h incubation by liquid-chromatography-coupled mass spectrometry (LC–MS)
Details: 2 µM

Structure (SMILES)	Bacterial Biotransformation
O=P1(N(CCCl)CCCl)NCCCO1 (stereo unspecified) [CYCLOPHOSPHAMIDE ANHYDROUS]	Compound NOT metabolized
CC(NC(C)(C)C)C(=O)c1cccc(Cl)c1 (stereo unspecified) [BUPROPION]	Compound NOT metabolized
CC(C)C[C@H]1C(=O)N2CCC[C@H]2[C@]2(O)O[C@](NC(=O)[C@@H]3C=C4c5cccc6[nH]c(Br)c(c56)C[C@H]4N(C)C3)(C(C)C)C(=O)N12.CS(=O)(=O)O [BROMOCRIPTINE MESYLATE]	Compound metabolized
CN1CCN(C2=Nc3cc(Cl)ccc3Nc3ccccc32)CC1 [CLOZAPINE]	Compound NOT metabolized

Experiment: The drug is tested on Clostridium sporogenes strain: ATCC15579 for biotransformation. The drug concentrations were measured before and after a 12-h incubation by liquid-chromatography-coupled mass spectrometry (LC–MS)
Details: 2 µM

Structure (SMILES)	Bacterial Biotransformation
O=P1(N(CCCl)CCCl)NCCCO1 (stereo unspecified) [CYCLOPHOSPHAMIDE ANHYDROUS]	Compound NOT metabolized
CC(NC(C)(C)C)C(=O)c1cccc(Cl)c1 (stereo unspecified) [BUPROPION]	Compound NOT metabolized
CC(C)C[C@H]1C(=O)N2CCC[C@H]2[C@]2(O)O[C@](NC(=O)[C@@H]3C=C4c5cccc6[nH]c(Br)c(c56)C[C@H]4N(C)C3)(C(C)C)C(=O)N12.CS(=O)(=O)O [BROMOCRIPTINE MESYLATE]	Compound metabolized

Experiment: The drug is tested on Ruminococcus lactaris strain: ATCC29176 for biotransformation. The drug concentrations were measured before and after a 12-h incubation by liquid-chromatography-coupled mass spectrometry (LC–MS)
Details: 2 µM

Structure (SMILES)	Bacterial Biotransformation
CC(NC(C)(C)C)C(=O)c1cccc(Cl)c1 (stereo unspecified) [BUPROPION]	Compound NOT metabolized
CC(C)C[C@H]1C(=O)N2CCC[C@H]2[C@]2(O)O[C@](NC(=O)[C@@H]3C=C4c5cccc6[nH]c(Br)c(c56)C[C@H]4N(C)C3)(C(C)C)C(=O)N12.CS(=O)(=O)O [BROMOCRIPTINE MESYLATE]	Compound metabolized
CN1CCN(C2=Nc3cc(Cl)ccc3Nc3ccccc32)CC1 [CLOZAPINE]	Compound NOT metabolized

Details: parabacteroides distasonis, 12 h, 2 µM
Description: The drug is tested on Parabacteroides distasonis strain: ATCC8503 for biotransformation. The drug concentrations were measured before and after a 12-h incubation by liquid-chromatography-coupled mass spectrometry (LC–MS)

Structure (SMILES)	Bacterial Biotransformation
O=P1(N(CCCl)CCCl)NCCCO1 (stereo unspecified) [CYCLOPHOSPHAMIDE ANHYDROUS]	Compound NOT metabolized
CC(NC(C)(C)C)C(=O)c1cccc(Cl)c1 (stereo unspecified) [BUPROPION]	Compound NOT metabolized
CC(C)C[C@H]1C(=O)N2CCC[C@H]2[C@]2(O)O[C@](NC(=O)[C@@H]3C=C4c5cccc6[nH]c(Br)c(c56)C[C@H]4N(C)C3)(C(C)C)C(=O)N12.CS(=O)(=O)O [BROMOCRIPTINE MESYLATE]	Compound metabolized

Experiment: The drug is tested on Bifidobacterium longum subsp. Infantis strain: CCUG52486 for biotransformation. The drug concentrations were measured before and after a 12-h incubation by liquid-chromatography-coupled mass spectrometry (LC–MS)
Details: 2 µM

Structure (SMILES)	Bacterial Biotransformation
CC(C)C[C@H]1C(=O)N2CCC[C@H]2[C@]2(O)O[C@](NC(=O)[C@@H]3C=C4c5cccc6[nH]c(Br)c(c56)C[C@H]4N(C)C3)(C(C)C)C(=O)N12.CS(=O)(=O)O [BROMOCRIPTINE MESYLATE]	Compound metabolized
CN1CCN(C2=Nc3cc(Cl)ccc3Nc3ccccc32)CC1 [CLOZAPINE]	Compound NOT metabolized

Experiment: The drug is tested on Bacteroides xylanisolvens strain: DSM18836 for biotransformation. The drug concentrations were measured before and after a 12-h incubation by liquid-chromatography-coupled mass spectrometry (LC–MS)
Details: 2 µM

Structure (SMILES)	Bacterial Biotransformation
O=P1(N(CCCl)CCCl)NCCCO1 (stereo unspecified) [CYCLOPHOSPHAMIDE ANHYDROUS]	Compound NOT metabolized
CC(NC(C)(C)C)C(=O)c1cccc(Cl)c1 (stereo unspecified) [BUPROPION]	Compound NOT metabolized
CC(C)C[C@H]1C(=O)N2CCC[C@H]2[C@]2(O)O[C@](NC(=O)[C@@H]3C=C4c5cccc6[nH]c(Br)c(c56)C[C@H]4N(C)C3)(C(C)C)C(=O)N12.CS(=O)(=O)O [BROMOCRIPTINE MESYLATE]	Compound metabolized
CN1CCN(C2=Nc3cc(Cl)ccc3Nc3ccccc32)CC1 [CLOZAPINE]	Compound NOT metabolized

Experiment: The drug is tested on Bacteroides caccae strain: ATCC43185 for biotransformation. The drug concentrations were measured before and after a 12-h incubation by liquid-chromatography-coupled mass spectrometry (LC–MS)
Details: 2 µM

Structure (SMILES)	Bacterial Biotransformation
CC(NC(C)(C)C)C(=O)c1cccc(Cl)c1 (stereo unspecified) [BUPROPION]	Compound NOT metabolized
CC(C)C[C@H]1C(=O)N2CCC[C@H]2[C@]2(O)O[C@](NC(=O)[C@@H]3C=C4c5cccc6[nH]c(Br)c(c56)C[C@H]4N(C)C3)(C(C)C)C(=O)N12.CS(=O)(=O)O [BROMOCRIPTINE MESYLATE]	Compound metabolized
CN1CCN(C2=Nc3cc(Cl)ccc3Nc3ccccc32)CC1 [CLOZAPINE]	Compound NOT metabolized

Details: anaerostipes sp., 12 h, 2 µM
Description: The drug is tested on Anaerostipes sp. strain: fecal isolate for biotransformation. The drug concentrations were measured before and after a 12-h incubation by liquid-chromatography-coupled mass spectrometry (LC–MS)

Structure (SMILES)	Bacterial Biotransformation
CC(NC(C)(C)C)C(=O)c1cccc(Cl)c1 (stereo unspecified) [BUPROPION]	Compound NOT metabolized
CC(C)C[C@H]1C(=O)N2CCC[C@H]2[C@]2(O)O[C@](NC(=O)[C@@H]3C=C4c5cccc6[nH]c(Br)c(c56)C[C@H]4N(C)C3)(C(C)C)C(=O)N12.CS(=O)(=O)O [BROMOCRIPTINE MESYLATE]	Compound metabolized
CN1CCN(C2=Nc3cc(Cl)ccc3Nc3ccccc32)CC1 [CLOZAPINE]	Compound NOT metabolized

Experiment: The drug is tested on Collinsella aerofaciens strain: ATCC25986 for biotransformation. The drug concentrations were measured before and after a 12-h incubation by liquid-chromatography-coupled mass spectrometry (LC–MS)
Details: 2 µM

Structure (SMILES)	Bacterial Biotransformation
O=P1(N(CCCl)CCCl)NCCCO1 (stereo unspecified) [CYCLOPHOSPHAMIDE ANHYDROUS]	Compound NOT metabolized
CC(C)C[C@H]1C(=O)N2CCC[C@H]2[C@]2(O)O[C@](NC(=O)[C@@H]3C=C4c5cccc6[nH]c(Br)c(c56)C[C@H]4N(C)C3)(C(C)C)C(=O)N12.CS(=O)(=O)O [BROMOCRIPTINE MESYLATE]	Compound metabolized
CN1CCN(C2=Nc3cc(Cl)ccc3Nc3ccccc32)CC1 [CLOZAPINE]	Compound NOT metabolized

Experiment: The drug is tested on Coprococcus comes strain: ATCC27758 for biotransformation. The drug concentrations were measured before and after a 12-h incubation by liquid-chromatography-coupled mass spectrometry (LC–MS)
Type: ADME
Design: dose 2 uM, timepoint 0 vs 12 hours
Details: 2 µM

Structure (SMILES)	Bacterial Biotransformation
CC(NC(C)(C)C)C(=O)c1cccc(Cl)c1 (stereo unspecified) [BUPROPION]	Compound NOT metabolized
CN1CCN(C2=Nc3cc(Cl)ccc3Nc3ccccc32)CC1 [CLOZAPINE]	Compound NOT metabolized

Details: bacteroides thetaiotaomicron, 12 h, 2 µM
Description: The drug is tested on Bacteroides thetaiotaomicron strain: 3731 for biotransformation. The drug concentrations were measured before and after a 12-h incubation by liquid-chromatography-coupled mass spectrometry (LC–MS)

Structure (SMILES)	Bacterial Biotransformation
O=P1(N(CCCl)CCCl)NCCCO1 (stereo unspecified) [CYCLOPHOSPHAMIDE ANHYDROUS]	Compound NOT metabolized
CC(NC(C)(C)C)C(=O)c1cccc(Cl)c1 (stereo unspecified) [BUPROPION]	Compound NOT metabolized
CC(C)C[C@H]1C(=O)N2CCC[C@H]2[C@]2(O)O[C@](NC(=O)[C@@H]3C=C4c5cccc6[nH]c(Br)c(c56)C[C@H]4N(C)C3)(C(C)C)C(=O)N12.CS(=O)(=O)O [BROMOCRIPTINE MESYLATE]	Compound metabolized
CN1CCN(C2=Nc3cc(Cl)ccc3Nc3ccccc32)CC1 [CLOZAPINE]	Compound NOT metabolized

Experiment: The drug is tested on Odoribacter splanchnicus strain: fecal isolate for biotransformation. The drug concentrations were measured before and after a 12-h incubation by liquid-chromatography-coupled mass spectrometry (LC–MS)
Details: 2 µM

Structure (SMILES)	Bacterial Biotransformation
O=P1(N(CCCl)CCCl)NCCCO1 (stereo unspecified) [CYCLOPHOSPHAMIDE ANHYDROUS]	Compound NOT metabolized
CC(NC(C)(C)C)C(=O)c1cccc(Cl)c1 (stereo unspecified) [BUPROPION]	Compound metabolized
CC(C)C[C@H]1C(=O)N2CCC[C@H]2[C@]2(O)O[C@](NC(=O)[C@@H]3C=C4c5cccc6[nH]c(Br)c(c56)C[C@H]4N(C)C3)(C(C)C)C(=O)N12.CS(=O)(=O)O [BROMOCRIPTINE MESYLATE]	Compound metabolized
CN1CCN(C2=Nc3cc(Cl)ccc3Nc3ccccc32)CC1 [CLOZAPINE]	Compound NOT metabolized

Experiment: The drug is tested on Providencia rettgeri strain: DSM1131 for biotransformation. The drug concentrations were measured before and after a 12-h incubation by liquid-chromatography-coupled mass spectrometry (LC–MS)
Type: ADME
Design: dose 2 uM, timepoint 0 vs 12 hours
Details: 2 µM

Structure (SMILES)	Bacterial Biotransformation
CC(C)C[C@H]1C(=O)N2CCC[C@H]2[C@]2(O)O[C@](NC(=O)[C@@H]3C=C4c5cccc6[nH]c(Br)c(c56)C[C@H]4N(C)C3)(C(C)C)C(=O)N12.CS(=O)(=O)O [BROMOCRIPTINE MESYLATE]	Compound metabolized
CN1CCN(C2=Nc3cc(Cl)ccc3Nc3ccccc32)CC1 [CLOZAPINE]	Compound NOT metabolized

Experiment: The drug is tested on Bacteroides finegoldii strain: DSM17565 for biotransformation. The drug concentrations were measured before and after a 12-h incubation by liquid-chromatography-coupled mass spectrometry (LC–MS)
Details: 2 µM

Structure (SMILES)	Bacterial Biotransformation
O=P1(N(CCCl)CCCl)NCCCO1 (stereo unspecified) [CYCLOPHOSPHAMIDE ANHYDROUS]	Compound NOT metabolized
CC(NC(C)(C)C)C(=O)c1cccc(Cl)c1 (stereo unspecified) [BUPROPION]	Compound NOT metabolized
CC(C)C[C@H]1C(=O)N2CCC[C@H]2[C@]2(O)O[C@](NC(=O)[C@@H]3C=C4c5cccc6[nH]c(Br)c(c56)C[C@H]4N(C)C3)(C(C)C)C(=O)N12.CS(=O)(=O)O [BROMOCRIPTINE MESYLATE]	Compound metabolized
CN1CCN(C2=Nc3cc(Cl)ccc3Nc3ccccc32)CC1 [CLOZAPINE]	Compound NOT metabolized

Experiment: The drug is tested on Bacteroides fragilis strain: HMW615 for biotransformation. The drug concentrations were measured before and after a 12-h incubation by liquid-chromatography-coupled mass spectrometry (LC–MS)
Details: 2 µM

Structure (SMILES)	Bacterial Biotransformation
O=P1(N(CCCl)CCCl)NCCCO1 (stereo unspecified) [CYCLOPHOSPHAMIDE ANHYDROUS]	Compound metabolized
CC(NC(C)(C)C)C(=O)c1cccc(Cl)c1 (stereo unspecified) [BUPROPION]	Compound NOT metabolized
CC(C)C[C@H]1C(=O)N2CCC[C@H]2[C@]2(O)O[C@](NC(=O)[C@@H]3C=C4c5cccc6[nH]c(Br)c(c56)C[C@H]4N(C)C3)(C(C)C)C(=O)N12.CS(=O)(=O)O [BROMOCRIPTINE MESYLATE]	Compound metabolized
CN1CCN(C2=Nc3cc(Cl)ccc3Nc3ccccc32)CC1 [CLOZAPINE]	Compound NOT metabolized

Experiment: The drug is tested on Clostridium scindens strain: ATCC35704 for biotransformation. The drug concentrations were measured before and after a 12-h incubation by liquid-chromatography-coupled mass spectrometry (LC–MS)
Details: 2 µM

Structure (SMILES)	Bacterial Biotransformation
CC(NC(C)(C)C)C(=O)c1cccc(Cl)c1 (stereo unspecified) [BUPROPION]	Compound NOT metabolized
CC(C)C[C@H]1C(=O)N2CCC[C@H]2[C@]2(O)O[C@](NC(=O)[C@@H]3C=C4c5cccc6[nH]c(Br)c(c56)C[C@H]4N(C)C3)(C(C)C)C(=O)N12.CS(=O)(=O)O [BROMOCRIPTINE MESYLATE]	Compound metabolized
CN1CCN(C2=Nc3cc(Cl)ccc3Nc3ccccc32)CC1 [CLOZAPINE]	Compound NOT metabolized

Experiment: The drug is tested on Eubacterium hallii strain: DSM3353 for biotransformation. The drug concentrations were measured before and after a 12-h incubation by liquid-chromatography-coupled mass spectrometry (LC–MS)
Details: anaerobutyricum hallii, 2 µM

Structure (SMILES)	Bacterial Biotransformation
CC(NC(C)(C)C)C(=O)c1cccc(Cl)c1 (stereo unspecified) [BUPROPION]	Compound NOT metabolized
CC(C)C[C@H]1C(=O)N2CCC[C@H]2[C@]2(O)O[C@](NC(=O)[C@@H]3C=C4c5cccc6[nH]c(Br)c(c56)C[C@H]4N(C)C3)(C(C)C)C(=O)N12.CS(=O)(=O)O [BROMOCRIPTINE MESYLATE]	Compound metabolized
CN1CCN(C2=Nc3cc(Cl)ccc3Nc3ccccc32)CC1 [CLOZAPINE]	Compound NOT metabolized
